From patent US10485769B2, “Cholesteryl ester transfer protein (CETP) inhibition in the treatment of cancer” (KING ABDULLAH UNIVERSITY OF SCIENCE AND TECHNOLOGY, priority 2015, dated 2019) come the findings set out here.

Data set [1] relates to apoptosis-associated proteins in MCF-7 cells. As to the kind of experiment: Western blotting of apoptosis-associated proteins. Format: cell-based, human. To be noted: 10 μM; for PARP-1 cleavage: 12 and 24 h time points; for expression of DNA damage marker pH2AX: as early as 2 h, remained elevated. On the procedure:
FIG. 2: Mode of induction in MCF-7 cells after treatment with AP and PL was determined by measuring changes in MOMP and levels of apoptosis-associated proteins. The cells were incubated with 10 μM AP and PL for different time intervals to capture the timeline of apoptosis induction in MCF-7 cells. The changes in MOMP were measured using flow cytometry after treating MCF-7 cells with PL and AP for 1, 2 and 4 h (A). […] F).
Intrinsic apoptosis is activated by the mitochondria where MOMP is reduced and the imbalance between pro- and anti-apoptotic factors results in activation of caspases 9, 3 and 7, cleavage of caspase substrate like PARP-1 (Poly [ADP-ribose] polymerase 1) and fragmentation of DNA. After treatment with 10 μM PL and AP alterations in the ratio of Bax and Bcl2 were observed and pro-caspase 9 levels were reduced (FIGS. 2B and C).

Data set [2] has as its system CETP. As to the kind of experiment: CETP protein in mice serum, western blotting and densitometry. Format: in vivo. To be noted: 2 mg/kg PL, 5 mg/kg AP, compared to Vehicle. On the procedure:
(§1) FIG. 7: Levels of CETP mRNA in tumor (A) and protein in serum (B) in mice tumor samples after treatment with 2 mg/kg PL or 5 mg/kg AP were determined with the RT-PCR and western blotting, respectively. Fold change in expression of serum protein was determined using densitometry analysis of western blots using ImageJ (C). CETP activity in serum was estimated using CETP activity kit (name of kit/manufacturer) (D). Values represent the means±SD of three independent experiments. * where p≤0.05, and ** where p≤0.005.
(§2) We performed qRT-PCR using mRNA isolated from mice tumor samples to determine the expression of CETP after treatment with PL and AP (FIG. 7A). […] CETP mRNA is translated into 74 kD protein comprised of 476 amino acids that localizes in plasma. […] CETP protein levels in mice serum samples were determined by western blotting (FIG. 7B).

A further data set has as its system BJ CETP siRNA cells. The data set can be described thus: Cholesterol levels in BJ CETP siRNA cells. It is filed as cell-based, human. To be noted: treated with PL or AP or left untreated.
Data set [3] concerns MCF-7 cells. The data set can be described thus: Mitochondrial Outer Membrane Potential (MOMP) by flow cytometry. It is filed as cell-based, human. The note with it: 10 μM PL, AP; 100 mM H2O2 positive control; versus untreated cells. How it is done:
FIG. 2: Mode of induction in MCF-7 cells after treatment with AP and PL was determined by measuring changes in MOMP and levels of apoptosis-associated proteins. The cells were incubated with 10 μM AP and PL for different time intervals to capture the timeline of apoptosis induction in MCF-7 cells. The changes in MOMP were measured using flow cytometry after treating MCF-7 cells with PL and AP for 1, 2 and 4 h (A). The alteration in expression of several apoptosis-associated proteins were determined using western blotting after incubating MCF-7 cells for 1, 2, 4, 6 h with PL (C, E) and AP (D. F).
The changes in Mitochondrial Outer Membrane Potential (MOMP) and proteins involved in the apoptotic cascade were assessed (FIG. 2).

Data set [4] concerns MCF-7 cells. As to the kind of experiment: MTT assay, viability of MCF-7 cells. To be noted: for effect on cell viability: 1 and 2.5 μM, 24 h. How it is done:
FIG. 1: MTT and APOPercentage assays to assess the differential cytotoxicity and apoptosis inducing potential of AP and PL in MCF-7 cells. Viability was determined using MTT assay after incubating the MCF-7 cells with different concentrations of AP and PL (A), at different time-points (B). The apoptosis inducing potential of 10 μM AP and PL in MCF-7 was determined by using APOPercentage assay performed at intervals of 2 and 6 h.
The activities of a compound described herein can be evaluated by methods known in the art, e.g., MTT (3-[4,5-dimethylthiazol-2-yl]-2,5-diphenyltetrazolium bromide) assay, APOPercentage, clonogenic assay, ATP assay, or Extreme Drug Resistance (EDR) assay. See Freuhauf, J. P. and Manetta, A., Chemosensitivity Testing in Gynecologic Malignancies and Breast Cancer 19, 39-52 (1994), which is incorporated by reference in its entirety. The results are then plotted to generate drug response curves, which allow IC50 values (the concentration of a compound required to inhibit 50% of the population of the treated cells) to be determined. […] In general, however, a dose can be in the range of from about 0.01 to about 10 mg/kg of body weight per day.
As a first step, MCF-7 cells were treated with 1, 2.5, 5 and 10 μM PL or AP for 24 h and percentage viability was determined after 24 h using the MTT assay. […] Next the effect of 10 μM PL drug on cell viability over time was determined. […] The percentage of cells undergoing apoptosis at the early time points i.e. 2 and 6 h was determined by the APOPercentage assay. APOPercentage dye binds to extracellularly exposed phosphatidylserine (PS) on the plasma membrane of apoptotic cells.
Background: Formazan colour is commonly taken as a measure of viable cells.

Data set [5] deals with MCF-7 cells. As to the kind of experiment: Total cholesterol in cells, Amplex Red Cholesterol kit. The note with it: 10 μM, within 2 h, compared to untreated cells. Format: cell-based, human. On the procedure: FIG. 5: Cholesterol depletion by PL and AP. BJ, BT20 and MCF-7 cells were treated with 10 μM PL or AP for 2 h and cholesterol levels were determined with the Amplex Red Cholesterol kit as per manufacturer's instructions. Cells treated with 5 mg/ml MBCD was used as a positive control and fluorescence was measured with a Tecan plate reader. MCF-7 cells were pre-incubated with 1 mM cholesterol for 1 h followed by treatment with 10 μM PL or AP for 2 h (A). Apoptosis was determined by flow cytometry with the APOPercentage kit or Cells treated with MBCD and 5 mM H2O2 served as positive controls (B). Values represent the means±SD of three independent experiments.
Next, we determined the effects of PL and AP on cholesterol levels in cells. Within 2 h of treatment with PL or AP, total cholesterol was reduced by 35% in MCF-7 cells as compared to untreated cells (FIG. 5). To test whether cholesterol depletion occurred in other cell types or if this was limited to ER positive BC cells, BJ and BT20 cells were also treated with PL or AP (Fig.).

The test system of data set [6] is CETP. The data set can be described thus: CETP mRNA in mice tumor samples, qRT-PCR. Format: in vivo. The note with it: 2 mg/kg PL, 5 mg/kg AP. On the procedure: as §1, §2
On the technique in general: In qPCR the cycle at which signal appears reflects the starting amount.

Another data set concerns BJ CETP knockdown cells. The data set can be described thus: Apoptosis in BJ CETP knockdown cells. To be noted: 10 μM PL or AP. Format: cell-based, human. How it is done:
FIG. 10: The effect of CETP mRNA silencing on MMP (A), Capase-3/7 activity (B) and apoptosis in MCF-7 (C) and BJ (D) untransfected, cntl siRNA and CETP knockout cells after treatment with 10 μM PL or AP. Values represent the means±SD of three independent experiments.
Next, we intended to see if CETP silencing increased sensitivity of MCF-7 cells to apoptosis.

The next data set concerns BJ cells. The data set can be described thus: BJ cell morphology on treatment (lipid raft staining experiment). Format: cell-based, human.

Read-outs that look alike come from different tables or passages of the source.

Turning to `CC(=O)Oc1cccc2c1C(=O)C=C(C)C2=O` [AP, Acetyl Plumbagin], in data set [1], the “pro-caspase 9 levels” value is recorded as “reduced”; the “ratio of Bax and Bcl2” value is listed as “alterations”; the “reduction of pro-caspase 7, time observed” value is listed as “reduced at 12 h”; the PARP-1 cleavage result was “substantially reduced from full length to the cleaved fragment”. Further, the “expression of DNA damage marker pH2AX” value in data set [1] was “significantly increased”. Besides, the “CETP protein levels in serum” value in the data set with CETP [2] is reported as “upregulated”. Further, in the data set on BJ CETP siRNA cells, the cholesterol levels entry was “No significant changes”. Moreover, the “MOMP, fluorescence in the FL-2 channel” value in the data set with MCF-7 cells [3] is “lower fluorescent values”. Further, in the data set on MCF-7 cells [4] (10 μM, as early as 6 h), the “cell viability reduced to” value was 50%. For the same compound, the “effect on cell viability” value in the data set with MCF-7 cells [4] was “no significant effect”. Also, the “reduction of total cholesterol” value with MCF-7 cells [5] is reported as 35%. The “reduction of CETP expression in tumors (mRNA)” value in the data set with CETP [6] came to 60%. For the same compound, the sensitivity to apoptosis entry with BJ CETP knockdown cells is on record as “no increased sensitivity to apoptosis”. The “effects on BJ cell morphology” value with BJ cells (treated with PL or AP) is “no adverse effects”.

As for `CC1=CC(=O)c2c(O)cccc2C1=O` [PL, 5-hydroxy-2-methyl-1,4-naphthoquinone, reference compound], in data set [1], the “pro-caspase 9 levels” value is “reduced”; the “ratio of Bax and Bcl2” value is on record as “alterations”; the “reduction of pro-caspase 7, time observed” value was “as early as 2 and 6 h”; the PARP-1 cleavage result is recorded as “substantially reduced from full length to the cleaved fragment”. Besides, the “expression of DNA damage marker pH2AX” value in data set [1] is “significantly increased”. The “CETP protein levels in serum” value in the data set with CETP [2] was “slightly reduced”. In addition, the cholesterol levels result with BJ CETP siRNA cells was “No significant changes”. Also, the “MOMP, fluorescence in the FL-2 channel” value in the data set with MCF-7 cells [3] is “lower fluorescent values”. Besides, in the data set with MCF-7 cells [4], the “effect on cell viability” value is “no significant effect”. For the same compound, the viability (usually a read-out of living cells in per cent, often relative to untreated cells) at 10 µM with MCF-7 cells [4] (Homo sapiens, MCF7, 6 h, read-out: cell viability reduced to) was found to be 50%. The “reduction of total cholesterol” value in the data set on MCF-7 cells [5] is given as 35%. The “reduction of CETP expression in tumors (mRNA)” value in the data set with CETP [6] is “no effect”. Further, the sensitivity to apoptosis entry in the data set with BJ CETP knockdown cells is reported as “no increased sensitivity to apoptosis”. Further, the “effects on BJ cell morphology” value in the data set with BJ cells is given as “no adverse effects”.
